Experimental data published in patent US9668967B2, “Lipid formulations comprising a thiolated antioxidant” (CAMURUS AB, priority 2008, dated 2017).

Key:
[1] = Exploratory stability study of glucagon lipid formulations, 25° C./60% RH for 7 days (NP HPLC); type: physicochemical; settings: for assayed GLU content as % of initial (time zero) GLU content (FIG. 3): antioxidant 0.3 wt % (BHT 0.1 wt %), compared with antioxidant-free control
Procedure: To prevent breakdown of glucagon resulting from oxidation of the methionine residue (giving Met(O)27glucagon), an antioxidant may be included in the compositions of the present invention. To establish the most suitable antioxidant, various common and less common antioxidants were tested in the peptide/lipid system of the present invention.
Note that the antioxidant content in the respective formulations, except for the reference formulations (#229 and #234), was 0.3 wt % for tocopherol (α-TOC), acsorbyl palmitate (AscPalm) and mono-thioglycerol (MTG) and 0.1 wt % for butyl hydroxytoluene (BHT). Samples containing MTG were #233 and 235.
In FIG. 3, the assayed GLU content after storage at 25° C./60% RH for 7 days is plotted as the % of initial (time zero) GLU content.
Because the assay is based on a normal phase (NP) HPLC column, degradation products with RR<1 are more hydrophobic compared with GLU whereas more hydrophilic degradation products give RR>1.

[2] = Hydrogen peroxide stress test of buprenorphine lipid formulations (HPLC); type: physicochemical
Procedure: Lipid formulations of BUP also containing antioxidant were prepared in the following way: First, a liquid lipid stock solution of SPC/GDO/EtOH/antioxidant (or a reference stock solution without antioxidant) in the required proportions were prepared by weighing of all components into glass vials followed by mixing by end-over-end rotation for about 8 h or until completely homogenous liquids were obtained. Thereafter, BUP (powder) was added to achieve a nominal concentration of 7.9 wt % in all cases. The antioxidants were added in an amount corresponding to common previous use in pharmaceutical products.
The following stress test was performed to evaluate the effect of the four different antioxidants (Table 1): Oxidative degradation was induced by adding 20 μL, H2O2 (30%)/mL formulation followed by equilibration of the formulations for 48 hours at RT (dark). Analysis of BUP and any oxidation degradation product (DP) in the formulations was performed by HPLC (reversed phase column) with UV detection at 288 nm.
The protective effect of different MTG concentrations was assessed by performing a stress test according to Example 1. […] The formulations were thereafter analysed by HPLC as described in Example 1 and the relative area % of the main oxidation degradation product (DP) peak (relative retention RR=1.053) was determined.

[3] = storage at 25° C./60% RH for 7 days

Row | SMILES | assayed GLU content as % of initial (time zero) GLU content (FIG. 3) [1, 3] | protecting BUP from oxidation degradation in the lipid formulation, compared with reference formulation ([2]; H2O2 treated formulations, Table 2) | protective effect of different MTG concentrations on main oxidation DP (FIG. 1) ([2]; MTG 0-1.0 wt % in BUP/SPC/GDO/EtOH=7.9/41.1/41.1/10.0 wt %, H2O2, 48 hours at RT (dark)) | suppressing the oxidative degradation of glucagon ([1]; compared with other lipid soluble antioxidants) | formation of Met(O)27glucagon (degradation products with RR>1, % Total Area, FIG. 4) [1, 3]
1 | CCCCCCCCCCCCCCCC(=O)OC[C@H](O)[C@H]1OC(=O)C(O)=C1O [AscPalm, acsorbyl palmitate, reference compound] | degrading of glucagon | – | – | – | –
2 | OCC(O)CS (stereo not drawn) [MTG, Mono-thioglycerol] | best oxidation protection | clearly superior | significant protective effect | more efficient than other lipid soluble antioxidants | most efficient
